Source: US9254274B2, “Method of treating Tourette'S disorder with GABA-aminotransferase inactivators” (CATALYST PHARMACEUTICAL PARTNERS, priority 2012, dated 2016)
Entries after “also recorded” stand apart in the source; their conditions may differ.

How the values were obtained:
hBGT-1 = target: T1, hBGT-1 (Homo sapiens, UniProt P48065); assay: [^3H]GABA uptake assay at human GABA transporters, tsA201 cells; type: cell-based; settings: mammalian cells recombinantly expressing hBGT-1
T1 construct: expressed in transfected cells; host or cells: tsA201 cells (transient, PolyFect)
T1 sequence (P48065 1-614): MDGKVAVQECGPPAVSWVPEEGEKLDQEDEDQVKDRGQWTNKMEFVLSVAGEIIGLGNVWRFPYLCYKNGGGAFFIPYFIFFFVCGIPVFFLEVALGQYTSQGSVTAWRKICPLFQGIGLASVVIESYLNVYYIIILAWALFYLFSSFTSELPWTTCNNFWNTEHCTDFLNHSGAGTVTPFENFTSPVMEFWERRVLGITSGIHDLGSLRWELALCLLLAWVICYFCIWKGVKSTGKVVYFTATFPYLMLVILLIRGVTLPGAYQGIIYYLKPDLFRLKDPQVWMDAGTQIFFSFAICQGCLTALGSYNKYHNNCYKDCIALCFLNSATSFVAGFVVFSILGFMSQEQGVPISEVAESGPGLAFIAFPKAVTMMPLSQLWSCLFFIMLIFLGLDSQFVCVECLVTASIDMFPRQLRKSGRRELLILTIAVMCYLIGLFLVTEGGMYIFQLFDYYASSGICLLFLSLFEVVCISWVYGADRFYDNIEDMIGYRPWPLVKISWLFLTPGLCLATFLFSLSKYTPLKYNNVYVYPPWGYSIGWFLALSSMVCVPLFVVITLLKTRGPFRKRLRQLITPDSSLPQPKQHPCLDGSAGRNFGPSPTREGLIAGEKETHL
Description: (§1) tsA201 cells were cultured in GlutaMAX-I DMEM supplemented with 10% fetal bovine serum, penicillin (100 U/ml), and streptomycin (100 μg/ml) at 37° C. in a humidified atmosphere of 95% air and 5% CO2. […] Quantification was performed by using Microscint™ 20 scintillation fluid (Perkin Elmer) and a Packard TopCount microplate scintillation counter.

hGAT-3 = target: T2, hGAT-3 (Homo sapiens, UniProt P48066); assay: as above; type: cell-based; settings: mammalian cells recombinantly expressing hGAT-3
T2 construct: expressed in transfected cells; host or cells: tsA201 cells (transient, PolyFect)
T2 sequence (P48066 1-632): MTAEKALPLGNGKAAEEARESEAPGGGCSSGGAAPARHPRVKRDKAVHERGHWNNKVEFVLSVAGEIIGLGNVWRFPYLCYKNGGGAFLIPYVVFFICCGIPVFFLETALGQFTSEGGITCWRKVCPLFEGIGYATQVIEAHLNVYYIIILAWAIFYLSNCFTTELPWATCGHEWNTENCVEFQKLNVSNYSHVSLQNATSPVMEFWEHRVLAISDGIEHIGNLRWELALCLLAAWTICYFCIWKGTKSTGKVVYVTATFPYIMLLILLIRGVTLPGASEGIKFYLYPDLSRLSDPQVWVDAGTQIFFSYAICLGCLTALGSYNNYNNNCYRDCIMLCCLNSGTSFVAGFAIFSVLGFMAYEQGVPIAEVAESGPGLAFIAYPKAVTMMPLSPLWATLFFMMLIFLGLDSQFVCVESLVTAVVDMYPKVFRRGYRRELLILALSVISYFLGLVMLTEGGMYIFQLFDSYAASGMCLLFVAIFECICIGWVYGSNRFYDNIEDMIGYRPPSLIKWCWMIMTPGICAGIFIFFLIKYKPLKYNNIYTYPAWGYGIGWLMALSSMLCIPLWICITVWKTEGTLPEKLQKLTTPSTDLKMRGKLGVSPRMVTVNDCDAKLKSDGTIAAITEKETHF
Description: as §1

hGAT-1 = target: T3, hGAT-1 (Homo sapiens, UniProt P30531); assay: as above; type: cell-based; settings: mammalian cells recombinantly expressing hGAT-1
T3 construct: expressed in transfected cells; host or cells: tsA201 cells (transient, PolyFect)
T3 sequence (P30531 whole entry): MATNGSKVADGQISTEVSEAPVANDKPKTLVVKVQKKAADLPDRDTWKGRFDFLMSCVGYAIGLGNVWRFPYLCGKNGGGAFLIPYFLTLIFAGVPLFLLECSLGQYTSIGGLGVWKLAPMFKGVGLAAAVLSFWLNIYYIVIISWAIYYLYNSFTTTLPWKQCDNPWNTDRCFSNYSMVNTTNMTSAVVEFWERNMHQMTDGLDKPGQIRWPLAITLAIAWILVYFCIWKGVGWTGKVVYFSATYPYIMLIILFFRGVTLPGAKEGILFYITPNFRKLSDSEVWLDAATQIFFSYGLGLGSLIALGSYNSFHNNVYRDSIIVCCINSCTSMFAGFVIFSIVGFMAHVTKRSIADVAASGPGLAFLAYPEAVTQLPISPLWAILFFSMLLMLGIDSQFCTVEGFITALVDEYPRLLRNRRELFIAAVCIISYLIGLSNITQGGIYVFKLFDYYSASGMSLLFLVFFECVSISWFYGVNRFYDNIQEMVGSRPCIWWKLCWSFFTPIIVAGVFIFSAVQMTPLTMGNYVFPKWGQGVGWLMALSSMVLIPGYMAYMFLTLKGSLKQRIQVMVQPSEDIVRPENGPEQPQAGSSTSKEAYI
Description: as §1

hGAT-2 = target: T4, hGAT-2 (Homo sapiens, UniProt Q9NSD5); assay: as above; type: cell-based; settings: mammalian cells recombinantly expressing hGAT-2
T4 construct: expressed in transfected cells; host or cells: tsA201 cells (transient, PolyFect)
T4 sequence (Q9NSD5 1-602): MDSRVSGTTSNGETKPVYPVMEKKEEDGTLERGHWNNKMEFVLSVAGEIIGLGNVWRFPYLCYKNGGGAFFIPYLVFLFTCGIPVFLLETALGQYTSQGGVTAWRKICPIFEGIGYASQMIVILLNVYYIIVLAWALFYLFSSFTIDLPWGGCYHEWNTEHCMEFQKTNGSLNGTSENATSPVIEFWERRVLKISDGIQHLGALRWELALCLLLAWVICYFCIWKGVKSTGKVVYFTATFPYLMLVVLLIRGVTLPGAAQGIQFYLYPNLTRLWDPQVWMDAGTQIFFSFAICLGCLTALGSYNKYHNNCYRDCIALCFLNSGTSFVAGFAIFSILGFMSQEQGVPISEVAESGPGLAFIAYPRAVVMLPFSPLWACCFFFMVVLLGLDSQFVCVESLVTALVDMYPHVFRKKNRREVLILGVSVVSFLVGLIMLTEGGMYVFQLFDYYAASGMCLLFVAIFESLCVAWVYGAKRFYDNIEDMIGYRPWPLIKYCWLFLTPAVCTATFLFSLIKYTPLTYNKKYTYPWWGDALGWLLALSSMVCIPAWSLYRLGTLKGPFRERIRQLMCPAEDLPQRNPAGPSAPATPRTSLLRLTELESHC
Description: as §1

human ρ1 GABAC receptors = target: T5, human ρ1 GABAC receptors (Homo sapiens, UniProt P24046); assay: Activity at recombinant GABAC receptors expressed in oocytes; type: cell-based; settings: 100 μM, hydrochloride salt
T5 construct: expressed in transfected cells; host or cells: Xenopus laevis oocytes
T5 sequence (P24046 22-479): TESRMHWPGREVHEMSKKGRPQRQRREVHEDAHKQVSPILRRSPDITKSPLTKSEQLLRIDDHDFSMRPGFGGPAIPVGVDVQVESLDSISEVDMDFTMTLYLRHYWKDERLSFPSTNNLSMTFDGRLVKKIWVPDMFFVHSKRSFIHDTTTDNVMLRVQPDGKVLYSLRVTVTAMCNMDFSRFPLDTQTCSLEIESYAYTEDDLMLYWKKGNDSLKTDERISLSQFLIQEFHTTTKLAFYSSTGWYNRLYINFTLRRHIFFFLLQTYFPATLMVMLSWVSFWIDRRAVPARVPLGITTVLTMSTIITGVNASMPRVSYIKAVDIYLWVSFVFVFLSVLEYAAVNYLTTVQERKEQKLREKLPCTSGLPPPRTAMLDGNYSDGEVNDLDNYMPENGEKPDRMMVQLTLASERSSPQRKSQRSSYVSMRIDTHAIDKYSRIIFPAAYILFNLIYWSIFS

reuptake of GABA = assay: GABA reuptake, general statement; type: cell-based
Description: as §1
(§2) Cortical neurons were cultured essentially as previously described by removing the neopallium of 15-day old NMRI embryos by dissection followed by mild trypsination (Hertz E, Yu A C H, Hertz L, Juurlink B H J and Schousboe A. Preparation of Primary Cultures of Mouse Cortical Neurons, in A Dissection and Tissue Culture Manual of the Nervous System (Shahar A, de Vellis J, Vernadakis A and Haber B eds) pp 183-186, Alan R. Liss, Inc., New York, […]). The neurons were cultured in 10% fetal calf serum and, after 48 h, cytosine arabinoside was added to a final concentration of 20 μM to prevent glial proliferation. […] The stable cell lines are under the selection pressure of blasticidin-S at 5 μg/mL. […] Radioactivity was measured using Microscint™ 20 scintillation fluid (PerkinElmer) and a Packard TopCount microplate scintillation counter.

cortical astrocytes = assay: [^3H]GABA uptake in cultured cortical astrocytes; type: cell-based, mouse
Description: Cortical astrocytes were cultured essentially as previously described (Hertz L, Juurlink B H J, Hertz E, Fosmark H and Schousboe A, Preparation of Primary Cultures of Mouse (Rat) Astrocytes, in A Dissection and Tissue Culture Manual of the Nervous System (Shahar A, de Vellis J, Vernadakis A and Haber B eds) pp 105-108, Alan R. Liss, Inc., New York, 1989). The neopallium was removed from new born NMRI mice (Taconic, Denmark) and passed through an 80 μm nylon sieve and cultured in modified Dulbecco's modified Eagle's medium with fetal calf serum. The calf serum was lowered from 20% to 10% over three weeks, and finally the astrocytes were allowed to differentiate using 0.25 mM dibutyryl cyclic AMP during the last week of growth.
Cortical neurons were cultured essentially as previously described by removing the neopallium of 15-day old NMRI embryos by dissection followed by mild trypsination (Hertz E, Yu A C H, Hertz L, Juurlink B H J and Schousboe A. Preparation of Primary Cultures of Mouse Cortical Neurons, in A Dissection and Tissue Culture Manual of the Nervous System (Shahar A, de Vellis J, Vernadakis A and Haber B eds) pp 183-186, Alan R. Liss, Inc., New York, 198). […] Radioactivity was measured using Microscint™ 20 scintillation fluid (PerkinElmer) and a Packard TopCount microplate scintillation counter.

cortical neurons = assay: [^3H]GABA uptake in cultured cortical neurons; type: cell-based, mouse
Description: as §2

GABAB receptor [1] = target: T6, GABAB receptor (Rattus norvegicus, UniProt Q9Z0U4); settings: 100 μM, rat brain cortical homogenate; hydrochloride salt
T6 sequence (Q9Z0U4 17-960 limits assumed): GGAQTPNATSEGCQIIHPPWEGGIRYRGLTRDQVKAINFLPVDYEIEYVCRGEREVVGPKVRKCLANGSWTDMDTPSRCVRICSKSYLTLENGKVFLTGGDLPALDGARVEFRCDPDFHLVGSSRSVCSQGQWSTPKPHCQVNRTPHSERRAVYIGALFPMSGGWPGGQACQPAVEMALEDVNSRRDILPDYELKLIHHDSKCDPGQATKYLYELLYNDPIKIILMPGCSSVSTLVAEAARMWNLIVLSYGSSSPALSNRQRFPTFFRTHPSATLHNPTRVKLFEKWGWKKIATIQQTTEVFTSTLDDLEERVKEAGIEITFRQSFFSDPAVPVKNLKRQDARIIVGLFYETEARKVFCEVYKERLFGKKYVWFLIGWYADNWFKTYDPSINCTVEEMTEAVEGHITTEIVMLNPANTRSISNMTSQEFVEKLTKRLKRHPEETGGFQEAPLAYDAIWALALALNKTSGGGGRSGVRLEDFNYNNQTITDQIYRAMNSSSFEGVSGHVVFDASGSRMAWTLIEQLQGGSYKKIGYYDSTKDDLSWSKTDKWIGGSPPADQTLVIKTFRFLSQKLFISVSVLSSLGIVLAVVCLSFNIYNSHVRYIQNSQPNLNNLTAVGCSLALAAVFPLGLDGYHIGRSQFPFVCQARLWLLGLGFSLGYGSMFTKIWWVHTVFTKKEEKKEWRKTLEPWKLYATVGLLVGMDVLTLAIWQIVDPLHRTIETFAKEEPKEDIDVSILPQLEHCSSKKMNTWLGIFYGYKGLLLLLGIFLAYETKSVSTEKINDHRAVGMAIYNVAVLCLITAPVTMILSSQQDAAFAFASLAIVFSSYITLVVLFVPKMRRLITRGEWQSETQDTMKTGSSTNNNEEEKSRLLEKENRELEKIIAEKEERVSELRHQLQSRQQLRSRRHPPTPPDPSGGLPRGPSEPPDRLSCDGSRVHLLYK
T6 sequence (O88871 41-940 partner): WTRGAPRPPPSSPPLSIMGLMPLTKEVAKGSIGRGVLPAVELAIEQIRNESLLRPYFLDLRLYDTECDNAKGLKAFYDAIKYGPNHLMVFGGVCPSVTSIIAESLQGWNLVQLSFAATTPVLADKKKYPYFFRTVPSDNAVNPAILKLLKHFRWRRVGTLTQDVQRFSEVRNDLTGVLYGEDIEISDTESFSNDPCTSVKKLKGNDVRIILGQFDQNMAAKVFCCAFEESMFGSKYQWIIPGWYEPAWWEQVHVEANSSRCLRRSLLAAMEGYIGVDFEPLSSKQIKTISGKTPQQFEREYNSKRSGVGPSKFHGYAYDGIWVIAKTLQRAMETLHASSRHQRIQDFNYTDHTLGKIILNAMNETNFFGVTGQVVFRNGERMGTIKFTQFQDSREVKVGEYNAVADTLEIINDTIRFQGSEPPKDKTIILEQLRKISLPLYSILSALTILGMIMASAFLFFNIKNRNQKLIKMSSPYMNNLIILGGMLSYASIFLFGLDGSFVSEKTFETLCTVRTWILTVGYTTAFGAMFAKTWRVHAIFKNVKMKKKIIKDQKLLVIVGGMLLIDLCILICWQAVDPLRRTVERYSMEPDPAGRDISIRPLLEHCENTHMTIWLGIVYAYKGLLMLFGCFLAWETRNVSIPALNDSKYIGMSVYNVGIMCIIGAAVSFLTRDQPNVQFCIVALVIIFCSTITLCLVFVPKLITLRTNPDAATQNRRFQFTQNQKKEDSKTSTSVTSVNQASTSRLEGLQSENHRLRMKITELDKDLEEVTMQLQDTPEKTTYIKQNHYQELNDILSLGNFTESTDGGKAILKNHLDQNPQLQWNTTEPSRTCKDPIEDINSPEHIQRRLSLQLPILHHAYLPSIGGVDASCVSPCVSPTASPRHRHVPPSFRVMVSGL

GABAA receptor = assay: [^3H]muscimol competition binding, rat brain synaptic membranes
Description: On the day of the assay, the membrane preparation was quickly thawed, suspended in 40 volumes of ice-cold 50 mM Tris-HCl buffer (pH 7.4) using an UltraTurrax homogenizer and centrifuged at 48,000 g for 10 min at 4° C. This washing step was repeated four times. The final pellet was resuspended in incubation buffer and the binding assay carried out as detailed below.

GABAB receptor [2] = target: T6, GABAB receptor; assay: biochemical

Row | Structure (SMILES) | inhibition of [^3H]GABA uptake (hBGT-1) | inhibition of [^3H]GABA uptake (hGAT-3) | inhibition of [^3H]GABA uptake (hGAT-1) | inhibition of [^3H]GABA uptake (hGAT-2) | agonist or antagonist effect at GABAC receptors (human ρ1 GABAC receptors) | inhibition of the reuptake of GABA (reuptake of GABA) | inhibition of [^3H]GABA uptake (cortical astrocytes) | inhibition of [^3H]GABA uptake (cortical neurons) | inhibition of radioligand binding at GABAB receptors (GABAB receptor [1]) | inhibition of radioligand binding at GABAA receptors (GABAA receptor; 100 μM, rat brain cortical homogenate, hydrochloride salt) | IC50 (GABAB receptor [2]) [µM] | IC50 (GABAA receptor; rat brain synaptic membranes) [µM]
1 | Cl.N[C@H]1C[C@@H](C(=O)O)CC1=C(F)F [(1S,3S)-3-amino-4-difluoromethylenyl-1-cyclopentanoic acid hydrochloride salt] | does not inhibit | does not inhibit | does not inhibit | does not inhibit | no effect as an agonist or antagonist | does not inhibit the reuptake of GABA | does not inhibit | does not inhibit | no inhibition of binding was observed | no inhibition of binding was observed; also recorded: nor does it bind |  | 
2 | N[C@H]1C[C@@H](C(=O)O)CC1=C(F)F [(1S,3S)-3-amino-4-difluoromethylenyl-1-cyclopentanoic acid] |  |  |  |  |  |  |  |  |  |  | > 100 | > 100
